Source: ChEMBL document CHEMBL1201862, “PubChem BioAssay data set” (2004)
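Tested at 5 concentrations; 48 h exposure; 96-well plates; endpoints linearly interpolated, else capped at highest concentration. At the GI50, growth is halved.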 Activity calls are given as the source filed them. Rule as the data show it: active = GI50 up to about 1.1 µM and inactive = higher.

Key:
Assay in all cases: inhibition of tumour cell growth, NCI panel, 48 h
HCT-15 = tested on: HCT-15
A498 = tested on: A498
KM12 = tested on: KM12
MOLT-4 = tested on: MOLT-4
NCI-H226 = tested on: NCI-H226
NCI-H460 = tested on: NCI-H460
Malme-3M = tested on: Malme-3M
SK-MEL-5 = tested on: SK-MEL-5
HL-60 = tested on: HL-60
SK-MEL-28 = tested on: SK-MEL-28
SN12C = tested on: SN12C
PC-3 = tested on: PC-3
786-0 = tested on: 786-0
HCC 2998 = tested on: HCC 2998
CAKI-1 = tested on: CAKI-1
SK-OV-3 = tested on: SK-OV-3
RXF 393 = tested on: RXF 393
SF-268 = tested on: SF-268
T47D = tested on: T47D

Q: `Cn1c(=O)cc(NNc2ccc(Br)cc2)[nH]c1=O` was tested. Which GI50 (HCT-15) did it give?
A: 6.71 µM

Q: What about the GI50 (A498) of the same compound?
A: 44.3 µM (inactive)

Q: What about the GI50 (KM12) of the same compound?
A: 2.24 µM (inactive)

Q: What about the GI50 (MOLT-4) of the same compound?
A: 0.558 µM (active)

Q: What about the GI50 (NCI-H226) of the same compound?
A: 18.2 µM (inactive)

Q: And the GI50 (NCI-H460)?
A: 4.26 µM (inactive)

Q: What about the GI50 (Malme-3M) of the same compound?
A: 16.6 µM (inactive)

Q: What about the GI50 (SK-MEL-5) of the same compound?
A: 16.6 µM (inactive)

Q: And the GI50 (HL-60)?
A: 2.99 µM (inactive)

Q: What about the GI50 (SK-MEL-28) of the same compound?
A: 17.3 µM (inactive)

Q: What about the GI50 (SN12C) of the same compound?
A: 10.7 µM (inactive)

Q: What about the GI50 (PC-3) of the same compound?
A: 10 µM (inactive)

Q: And the GI50 (786-0)?
A: 9.59 µM (inactive)

Q: And the GI50 (HCC 2998)?
A: 4.59 µM (inactive)

Q: How did the GI50 (HCT-15) turn out when `CCOc1ccc(/C=C2\NC(=S)N(/C=C3\C(=O)Oc4ccccc4C3=O)C2=O)cc1` was run?
A: 20.7 µM

Q: What about the GI50 (KM12) of the same compound?
A: 20.7 µM (inactive)

Q: And the GI50 (MOLT-4)?
A: 24.3 µM (inactive)

Q: And the GI50 (NCI-H226)?
A: 24.7 µM (inactive)

Q: And the GI50 (NCI-H460)?
A: 21.4 µM (inactive)

Q: What about the GI50 (CAKI-1) of the same compound?
A: 23.9 µM (inactive)

Q: What about the GI50 (SK-MEL-5) of the same compound?
A: 19.7 µM (inactive)

Q: What about the GI50 (HL-60) of the same compound?
A: 13.7 µM (inactive)

Q: And the GI50 (SK-MEL-28)?
A: 36.8 µM (inactive)

Q: What about the GI50 (SN12C) of the same compound?
A: 19.7 µM (inactive)

Q: And the GI50 (SK-OV-3)?
A: 17.9 µM (inactive)

Q: And the GI50 (PC-3)?
A: 18.1 µM (inactive)

Q: And the GI50 (786-0)?
A: 19.2 µM (inactive)

Q: And the GI50 (HCC 2998)?
A: 32.1 µM (inactive)

Q: What about the GI50 (RXF 393) of the same compound?
A: 3.84 µM (inactive)

Q: And the GI50 (SF-268)?
A: 22.2 µM (inactive)

Q: How did the GI50 (T47D) turn out when `c1ccc2c(c1)SCCCSCCCS2` was run?
A: > 100 µM (inactive)

Q: What about the GI50 (HCT-15) of the same compound?
A: > 100 µM

Q: What about the GI50 (KM12) of the same compound?
A: > 100 µM (inactive)

Q: And the GI50 (MOLT-4)?
A: 67.6 µM (inactive)

Q: And the GI50 (NCI-H460)?
A: > 100 µM (inactive)

Q: And the GI50 (SK-MEL-5)?
A: > 100 µM (inactive)

Q: What about the GI50 (HL-60) of the same compound?
A: 28.1 µM (inactive)

Q: What about the GI50 (SK-MEL-28) of the same compound?
A: > 100 µM (inactive)

Q: And the GI50 (SN12C)?
A: > 100 µM (inactive)

Q: And the GI50 (SK-OV-3)?
A: > 100 µM (inactive)

Q: And the GI50 (PC-3)?
A: > 100 µM (inactive)

Q: And the GI50 (786-0)?
A: > 100 µM (inactive)

Q: And the GI50 (HCC 2998)?
A: > 100 µM (inactive)

Q: And the GI50 (SF-268)?
A: > 100 µM (inactive)

Q: Which GI50 (HCT-15) does the source give for `Nc1ccc(/N=N/c2ccc(-c3ccc(/N=N/c4c(S(=O)(=O)O)cc5cc(S(=O)(=O)O)c(/N=N/c6ccc([N+](=O)[O-])cc6)c(N)c5c4O)cc3)cc2)c2cc(S(=O)(=O)O)ccc12` here?
A: > 100 µM

Q: And the GI50 (A498)?
A: > 100 µM (inactive)

Q: And the GI50 (KM12)?
A: > 100 µM (inactive)

Q: What about the GI50 (MOLT-4) of the same compound?
A: > 100 µM (inactive)

Q: And the GI50 (NCI-H226)?
A: > 100 µM (inactive)

Q: What about the GI50 (NCI-H460) of the same compound?
A: > 100 µM (inactive)

Q: What about the GI50 (CAKI-1) of the same compound?
A: > 100 µM (inactive)

Q: What about the GI50 (Malme-3M) of the same compound?
A: > 100 µM (inactive)

Q: And the GI50 (SK-MEL-5)?
A: > 100 µM (inactive)

Q: What about the GI50 (HL-60) of the same compound?
A: > 100 µM (inactive)

Q: And the GI50 (SK-MEL-28)?
A: > 100 µM (inactive)

Q: And the GI50 (SN12C)?
A: > 100 µM (inactive)

Q: And the GI50 (SK-OV-3)?
A: > 100 µM (inactive)

Q: And the GI50 (786-0)?
A: > 100 µM (inactive)

Q: And the GI50 (HCC 2998)?
A: > 100 µM (inactive)

Q: What about the GI50 (RXF 393) of the same compound?
A: > 100 µM (inactive)

Q: What about the GI50 (SF-268) of the same compound?
A: > 100 µM (inactive)

Q: With `COC(=O)C1(Cc2ccccc2)Cc2ccccc2C1=O` (stereo not given) as the compound, how does the GI50 (T47D) read?
A: 43.1 µM (inactive)

Q: What about the GI50 (HCT-15) of the same compound?
A: 37.2 µM

Q: What about the GI50 (KM12) of the same compound?
A: 27.7 µM (inactive)

Q: What about the GI50 (MOLT-4) of the same compound?
A: 25.6 µM (inactive)

Q: What about the GI50 (NCI-H226) of the same compound?
A: 35.6 µM (inactive)

Q: What about the GI50 (NCI-H460) of the same compound?
A: 46 µM (inactive)

Q: What about the GI50 (CAKI-1) of the same compound?
A: 83 µM (inactive)

Q: What about the GI50 (Malme-3M) of the same compound?
A: 16.3 µM (inactive)

Q: And the GI50 (SK-MEL-5)?
A: 20 µM (inactive)

Q: And the GI50 (HL-60)?
A: 19.7 µM (inactive)

Q: And the GI50 (SK-MEL-28)?
A: 65.9 µM (inactive)

Q: And the GI50 (SN12C)?
A: 35.2 µM (inactive)

Q: And the GI50 (SK-OV-3)?
A: > 100 µM (inactive)

Q: What about the GI50 (PC-3) of the same compound?
A: 44.9 µM (inactive)

Q: And the GI50 (786-0)?
A: 60.5 µM (inactive)

Q: And the GI50 (HCC 2998)?
A: 42.3 µM (inactive)

Q: And the GI50 (SF-268)?
A: 70.8 µM (inactive)

Q: How did the GI50 (T47D) turn out when `O=C(CSc1nc2nncc-2c(O)[nH]1)c1ccc(Cl)cc1` was run?
A: > 100 µM (inactive)

Q: And the GI50 (HCT-15)?
A: 93.8 µM

Q: What about the GI50 (KM12) of the same compound?
A: > 100 µM (inactive)

Q: What about the GI50 (MOLT-4) of the same compound?
A: > 100 µM (inactive)

Q: And the GI50 (NCI-H226)?
A: > 100 µM (inactive)

Q: What about the GI50 (NCI-H460) of the same compound?
A: > 100 µM (inactive)

Q: What about the GI50 (CAKI-1) of the same compound?
A: > 100 µM (inactive)

Q: What about the GI50 (Malme-3M) of the same compound?
A: > 100 µM (inactive)

Q: What about the GI50 (SK-MEL-5) of the same compound?
A: > 100 µM (inactive)

Q: And the GI50 (SK-MEL-28)?
A: > 100 µM (inactive)

Q: And the GI50 (SN12C)?
A: > 100 µM (inactive)

Q: And the GI50 (SK-OV-3)?
A: > 100 µM (inactive)

Q: And the GI50 (PC-3)?
A: > 100 µM (inactive)

Q: And the GI50 (786-0)?
A: > 100 µM (inactive)

Q: What about the GI50 (HCC 2998) of the same compound?
A: > 100 µM (inactive)

Q: And the GI50 (RXF 393)?
A: > 100 µM (inactive)

Q: What about the GI50 (SF-268) of the same compound?
A: > 100 µM (inactive)
